Data reported in patent US20080275111A1, “Novel Use of Lignan Compounds” (priority 2005, published 2008).

Key:
cell line HT-22 = experiment: Reactive oxygen species production in cell line HT-22 (CM-H2DCFDA); format: cell-based; conditions: 5 μM compound, 8 hours
Procedure: A cell line HT-22 (obtained from Dr. David Schubert) derived from the hippocampus playing a part in memory of the brain was treated with 5 mM of glutamate and 5 μM of the lignan compound of the present invention simultaneously for 8 hours. As a control, the cell line HT-22 was not treated with the lignan compound of the present invention. The treated cell line HT-22 was then treated with CM-H2DCFDA (chloromethyl derivative of dichlorodihydrofluorescein diacetate, Molecular Probes) to analyze the production of reactive oxygen species.

COX-2 = COX-2 expression in LPS-activated microglia (Western blotting); format: cell-based, mouse; conditions: 1 μg/ml LPS, compound 2.5 and 10 μM, 16 or 24 hours
Description: In Example <6-2>, it was observed that the NO production induced by LPS in the tissue-cultured microglia of mouse was inhibited by the lignan compound of the present invention. NO is produced by iNOS enzyme of which expression is induced by activation of microglia. Therefore, the correlation between the reduction of NO production and inhibition of iNOS expression was examined. Additionally, a change in the amount of a protein COX-2 participating in the production of other inflammation-mediating materials was examined. For Western blotting analysis, tissue-cultured microglia was cultured in a 60 mm cell culture dish up to a concentration of 7.5×10^5 cells/ml. After 1 day of cultivation, the activation of microglia was induced by 1 μg/ml of LPS (Sigma) treatment. Simultaneously, the microglia was also treated with 2.5 and 10 μM of the lignan compound of the present invention together with LPS, and incubated for 16 or 24 hours. The incubated cell was washed with cold PBS 2 times, and then dissolved in a cold lysis buffer (1% SDS, 1 mM Na3VO4, 10 mM NaF, 10 mM Tris-Cl, pH 7.4 containing 1× protease inhibitors cocktail). […] Then, the amount of proteins was quantified according to BCA method. […]
NaCl containing 0.1% Tween 20) 3 times. […] Again, the membrane was then washed with TBS-T solution 3 times, and each band on the membrane was analyzed using ECL system (Sigma).

IL-6 = IL-6 production in LPS-activated microglia (ELISA); format: cell-based, rat; conditions: 1 μg/ml LPS, compound 2.5 and 10 μM, 24 hours
Description: When the microglia is activated by LPS, it synthesizes and secretes various pro-inflammatory cytokines such as IL-1, IL-6 and TNF-α (Chen, S. Neurobiol. Aging, 17:781-787, 1996). Therefore, in order to examine the anti-inflammatory effect of the lignan compound of the present invention, the effect of the lignan compound of the present invention on the production of IL-6 and TNF-α in the activated microglia. First, only the neocortex was isolated from the brain of 1 day-old rat. Then, a microglia-astroglia mixture was prepared according to a method known in the art (Kim, H. Y. et al., J. Immunol., 171:6072-6079, 2003). […] Then, the amount of IL-6 and TNF-α secreted into the cell cultured medium was measured with the solid-phase ELISA system (RPN2742 for IL-6, RPN2744 for TNF-α, Amersham Bioscience). For this analysis, 50 μl of the supernatant of the cultured medium of microglia and 50 μl of the standard of each material (purely isolated and quantified IL-6 or TNF-α) were added into a 96-well plate coated with an antibody specific to mouse IL-6 and TNF-α. […] Then, 100 μl of a stop solution (Amersham Bioscience) was added into each well to stop the reaction, and the absorbance of the solution in each well was measured with a microreader at 450 nm. […]

COc1cc(C[C@H](C)[C@H](C)Cc2ccc3c(c2)OCO3)ccc1O [macelignan, (8R,8′S)-7-(3,4-methylenedioxyphenyl)-7′-(4-hydroxy-3-methoxyphenyl)-8,8′-dimethylbutane]
production of reactive oxygen species induced by glutamate (cell line HT-22; HT-22, 5 mM glutamate): inhibited
production of reactive oxygen species occurred naturally in a cell (cell line HT-22; HT-22 not treated with glutamate): significantly inhibited
expression of COX-2 induced by LPS (COX-2): inhibited in a concentration dependent manner
production of IL-6 induced by LPS (IL-6): dose-dependently inhibited
